Measurements reported in publication PMC10814857, “Functional Classification and Interaction Selectivity Landscape of the Human SH3 Domain Superfamily” (Cells, 2024).
Peptide text beside a SMILES is read from it.

What was measured:
Experiment in all cases: Fluorescence polarization SH3 domain-PRP binding
Details in all cases: FP, 0.2 µM fluorescein-labeled peptide, SH3 domain 0-200 µM, Tris/HCl pH 7.5, 25 °C, quadratic fit
[1] = target: T1, ARHGAP12 SH3 domain (aa 12-74) (Homo sapiens, UniProt Q8IWW6)
T1 construct: 12-74; GST (N); made in house; host or cells: Escherichia coli CodonPlus, Rosetta, BL21(DE3)
T1 sequence (Q8IWW6 12-74): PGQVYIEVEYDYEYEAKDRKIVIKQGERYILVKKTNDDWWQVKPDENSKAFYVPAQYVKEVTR
Procedure: (§1) The interaction between fluorescein-labeled proline-rich peptides (0.2 µM) and increasing concentrations of SH3 domains (ranging from 0 to 200 µM) was measured in a buffer (containing 30 mM Tris/HCl (pH 7.5), 5 mM MgCl2, and 3 mM DTT at 25 °C) in a total volume of 200 µL using a Fluoromax 4 fluorimeter in polarization mode and a quartz glass fluorescence cuvette (Hellma Ultra-Micro Cuvette 105.250-QS, Thermo Fisher Scientific, Waltham, MA USA). Excitation was performed at 470 nm and emission was measured at 560 nm. Dissociation constants (Kd) were determined by fitting the concentration-dependent binding curve to a quadratic ligand binding equation.
(§2) Fluorescence polarization measurements were performed to determine the binding affinities of SH3 domain–PRP interaction pairs from the dot blot analysis. SH3 proteins were titrated at increasing concentrations against fluorescent PRPs, which were kept at a constant concentration of 0.2 µM. GRB2-2^W193K, which is defective in the binding of PRPs such as RP1, was used as a negative control as previously described. […] The resulting data (Figure S6) allowed the evaluation of equilibrium dissociation constants (Kd) for 45 interactions between the SH3 domains and the PRPs (Figure 2B; Table S6).
(§3) Figure S6. Interactions of the SH3 domains with fluorescent PRPs measured by fluorescence polarization.
(§4) Fluorescent peptides (0.2 µM) were titrated with increasing concentrations of the corresponding SH3 domains.
(§5) GRB2-2W193K, defective in the binding of PRPs such as RP1, was used as a negative control as previously described. The x-axis represents SH3 domain concentrations as GST fusion proteins in µM, while the y-axis represents fluorescence polarization. The equilibrium dissociation constants (Kd) for the respective measurements were determined by fitting the titration curves to a quadratic ligand-binding equation (solid lines). All Kd values are […]
(§6) Error bars are derived from the fitting errors.
(§7) (1 picture or pasted object on this page, not shown here)

[2] = target: T2, ITSN1-3 SH3 domain (aa 1002-1060) (Homo sapiens, UniProt Q15811)
T2 construct: 1002-1060; GST (N); made in house; host or cells: Escherichia coli CodonPlus, Rosetta, BL21(DE3)
T2 sequence (Q15811 1002-1060): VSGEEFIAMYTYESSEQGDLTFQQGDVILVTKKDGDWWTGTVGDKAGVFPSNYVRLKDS
Procedure: as §1, §2, §3, §4, §5, §6, §7

[3] = target: T3, DLG2 SH3 domain (aa 536-606) (Homo sapiens, UniProt Q15700)
T3 construct: 536-606; GST (N); made in house; host or cells: Escherichia coli CodonPlus, Rosetta, BL21(DE3)
T3 sequence (Q15700 536-606): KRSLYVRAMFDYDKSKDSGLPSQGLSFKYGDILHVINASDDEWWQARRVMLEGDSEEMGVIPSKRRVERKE
Procedure: as §1, §2, §3, §4, §5, §6, §7

[4] = target: T4, ARHGEF30 (OBSCN) SH3 domain (aa 5600-5667) (Homo sapiens, UniProt Q5VST9)
T4 construct: 5600-5667; GST (N); made in house; host or cells: Escherichia coli CodonPlus, Rosetta, BL21(DE3)
T4 sequence (Q5VST9 5600-5667): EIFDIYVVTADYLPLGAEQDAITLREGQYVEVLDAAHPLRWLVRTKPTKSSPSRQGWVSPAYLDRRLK
Procedure: as §1, §2, §3, §4, §5, §6, §7

[5] = target: T5, ITSN1-2 SH3 domain (aa 913-971) (Homo sapiens, UniProt Q15811)
T5 construct: 913-971; GST (N); made in house; host or cells: Escherichia coli CodonPlus, Rosetta, BL21(DE3)
T5 sequence (Q15811 913-971): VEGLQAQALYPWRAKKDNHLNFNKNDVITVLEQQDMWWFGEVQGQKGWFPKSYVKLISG
Procedure: as §1, §2, §3, §4, §5, §6, §7

[6] = target: T6, GRB2-1 SH3 domain (aa 1-58) (Homo sapiens, UniProt P62993)
T6 construct: 1-58; GST (N); made in house; host or cells: Escherichia coli CodonPlus, Rosetta, BL21(DE3)
Procedure: as §1, §2, §3, §4, §5, §6, §7

[7] = target: T7, BIN1 SH3 domain (aa 520-593) (Homo sapiens, UniProt O00499)
T7 construct: 520-593; GST (N); made in house; host or cells: Escherichia coli CodonPlus, Rosetta, BL21(DE3)
T7 sequence (O00499 520-593): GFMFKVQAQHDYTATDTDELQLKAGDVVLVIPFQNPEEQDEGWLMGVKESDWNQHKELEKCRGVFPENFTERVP
Procedure: as §1, §2, §3, §4, §5, §6, §7

[8] = target: T8, CRK-1 SH3 domain (aa 132-192) (Homo sapiens, UniProt P46108)
T8 construct: 132-192; GST (N); made in house; host or cells: Escherichia coli CodonPlus, Rosetta, BL21(DE3)
Procedure: as §1, §2, §3, §4, §5, §6, §7

[9] = target: T9, ITSN1-1 SH3 domain (aa 740-806) (Homo sapiens, UniProt Q15811)
T9 construct: 740-806; GST (N); made in house; host or cells: Escherichia coli CodonPlus, Rosetta, BL21(DE3)
T9 sequence (Q15811 740-806): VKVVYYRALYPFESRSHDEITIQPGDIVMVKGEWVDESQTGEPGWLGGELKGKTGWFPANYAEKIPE
Procedure: as §1, §2, §3, §4, §5, §6, §7

[10] = target: T10, ABL2 SH3 domain (aa 107-167) (Homo sapiens, UniProt P42684)
T10 construct: 107-167; GST (N); made in house; host or cells: Escherichia coli CodonPlus, Rosetta, BL21(DE3)
Procedure: as §1, §2, §3, §4, §5, §6, §7

[11] = target: T11, GRB2-2 SH3 domain (aa 158-215) (Homo sapiens, UniProt P62993)
T11 construct: 158-215; GST (N); made in house; host or cells: Escherichia coli CodonPlus, Rosetta, BL21(DE3)
Procedure: as §1, §2, §3, §4, §5, §6, §7

[12] = target: T12, ABI1 SH3 domain (aa 446-505) (Homo sapiens, UniProt Q8IZP0)
T12 construct: 446-505; GST (N); made in house; host or cells: Escherichia coli CodonPlus, Rosetta, BL21(DE3)
Procedure: as §1, §2, §3, §4, §5, §6, §7

T11 sequence (P62993 158-215): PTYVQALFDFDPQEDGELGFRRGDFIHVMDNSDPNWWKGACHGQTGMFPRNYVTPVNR
T8 sequence (P46108 132-192): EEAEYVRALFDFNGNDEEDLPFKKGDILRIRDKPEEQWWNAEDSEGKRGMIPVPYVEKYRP
T10 sequence (P42684 107-167): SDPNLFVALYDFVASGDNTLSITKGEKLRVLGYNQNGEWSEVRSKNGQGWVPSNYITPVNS
T12 sequence (Q8IZP0 446-505): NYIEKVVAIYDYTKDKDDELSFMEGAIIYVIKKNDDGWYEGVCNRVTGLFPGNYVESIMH
T6 sequence (P62993 1-58): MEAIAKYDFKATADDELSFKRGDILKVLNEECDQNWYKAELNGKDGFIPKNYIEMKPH

| Kd [1] | Kd [2] | Kd [3] | Kd [4] | Kd [5] | Kd [6] | Kd [7] | Kd [8] | Kd [9] | Kd [10] | Kd [11] | Kd [12] | Structure (SMILES) |
| --- | --- | --- | --- | --- | --- | --- | --- | --- | --- | --- | --- | --- |
| 16.7 µM | > 200 µM | > 200 µM | > 200 µM | > 200 µM | 11 µM | > 200 µM | > 200 µM | 39 µM | 11 µM | 3.4 µM | > 200 µM | CC(C)[C@H](N)C(=O)N1CCC[C@H]1C(=O)N[C@H](C(=O)N1CCC[C@H]1C(=O)N1CCC[C@H]1C(=O)N1CCC[C@H]1C(=O)N[C@H](C(=O)N1CCC[C@H]1C(=O)N1CCC[C@H]1C(=O)N[C@@H](CCCNC(=N)N)C(=O)N[C@@H](CCCNC(=N)N)C(=O)N[C@@H](CCCNC(=N)N)C(=O)O)C(C)C)C(C)C [RP1, reference compound] |
| > 200 µM | > 200 µM | > 200 µM | > 200 µM | > 200 µM | > 200 µM | > 200 µM | > 200 µM | > 200 µM | > 200 µM | > 200 µM | > 200 µM | CC[C@H](C)[C@H](NC(=O)[C@H](Cc1c[nH]cn1)NC(=O)[C@@H](N)CCC(N)=O)C(=O)N1CCC[C@H]1C(=O)N[C@@H](CCCCN)C(=O)N[C@@H](CC(C)C)C(=O)N1CCC[C@H]1C(=O)N1CCC[C@H]1C(=O)N[C@@H](CCCCN)C(=O)N[C@H](C(=O)N[C@@H](Cc1ccc(O)cc1)C(=O)O)[C@@H](C)O [Peptide P10] (H-QHIPKLPPKTY-OH; N-terminus and C-terminus assumed) |
| > 200 µM | > 200 µM | > 200 µM | > 200 µM | > 200 µM | > 200 µM | 47 µM | > 200 µM | > 200 µM | > 200 µM | > 200 µM | > 200 µM | CC[C@H](C)[C@H](N)C(=O)N[C@@H](C)C(=O)NCC(=O)N1CCC[C@H]1C(=O)N1CCC[C@H]1C(=O)N[C@H](C(=O)N1CCC[C@H]1C(=O)N1CCC[C@H]1C(=O)N[C@@H](CCCNC(=N)N)C(=O)N[C@@H](CCC(N)=O)C(=O)N[C@@H](CO)C(=O)O)C(C)C [Peptide P9] (H-IAGPPVPPRQS-OH) |

The next lines start with the molecule.

| Structure (SMILES) | Kd [1] | Kd [2] | Kd [3] | Kd [4] | Kd [5] | Kd [6] | Kd [7] | Kd [8] | Kd [9] | Kd [10] | Kd [11] | Kd [12] |
| --- | --- | --- | --- | --- | --- | --- | --- | --- | --- | --- | --- | --- |
| CC(C)C[C@H](NC(=O)[C@@H](NC(=O)[C@@H](N)C(C)C)[C@@H](C)O)C(=O)N1CCC[C@H]1C(=O)N[C@@H](Cc1c[nH]cn1)C(=O)NCC(=O)N1CCC[C@H]1C(=O)N[C@@H](CCCNC(=N)N)C(=O)N[C@@H](CO)C(=O)N[C@@H](C)C(=O)O [Peptide P2] (H-VTLPHGPRSA-OH) | > 200 µM | > 200 µM | > 200 µM | > 200 µM | > 200 µM | > 200 µM | > 200 µM | > 200 µM | > 200 µM | > 200 µM | > 200 µM | 60.7 µM |
| CC[C@H](C)[C@H](NC(=O)[C@H](CCCCN)NC(=O)[C@H](CO)NC(=O)[C@@H]1CCCN1C(=O)[C@H](CO)NC(=O)[C@H](CO)NC(=O)[C@H](CCC(=O)O)NC(=O)[C@H](C)NC(=O)[C@@H]1CCCN1C(=O)[C@H](C)NC(=O)[C@H](CO)NC(=O)[C@H](CCC(=O)O)NC(=O)[C@@H]1CCCN1C(=O)[C@H](CCCNC(=N)N)NC(=O)[C@H](CCCNC(=N)N)NC(=O)[C@H](CCCNC(=N)N)NC(=O)[C@@H]1CCCN1C(=O)[C@@H]1CCCN1C(=O)[C@@H](NC(=O)[C@@H]1CCCN1C(=O)[C@@H]1CCCN1C(=O)[C@@H]1CCCN1C(=O)[C@@H](NC(=O)[C@@H]1CCCN1C(=O)[C@@H](NC(=O)[C@@H](N)CCC(=O)O)C(C)C)C(C)C)C(C)C)C(=O)O [Peptide P3] (H-EVPVPPPVPPRRRPESAPAESSPSKI-OH) | 13.8 µM | > 200 µM | > 200 µM | > 200 µM | > 200 µM | 15 µM | > 200 µM | 12.9 µM | > 200 µM | > 200 µM | 12 µM | > 200 µM |
| CC[C@H](C)[C@H](NC(=O)[C@H](C)NC(=O)[C@@H]1CCCN1C(=O)[C@@H]1CCCN1C(=O)[C@H](CO)NC(=O)[C@H](CC(=O)O)NC(=O)[C@@H](N)CC(C)C)C(=O)N1CCC[C@H]1C(=O)N1CCC[C@H]1C(=O)N[C@@H](CCCNC(=N)N)C(=O)N[C@@H](CCC(N)=O)C(=O)N1CCC[C@H]1C(=O)N[C@H](C(=O)N[C@@H](CO)C(=O)N[C@@H](CCCCN)C(=O)O)[C@@H](C)O [Peptide P4] (H-LDSPPAIPPRQPTSK-OH) | > 200 µM | > 200 µM | > 200 µM | > 200 µM | > 200 µM | 60 µM | > 200 µM | > 200 µM | 6.6 µM | 125 µM | 20 µM | 24.6 µM |
| CC[C@H](C)[C@H](N)C(=O)N[C@@H](CO)C(=O)N[C@@H](CC(=O)O)C(=O)N1CCC[C@H]1C(=O)N1CCC[C@H]1C(=O)N[C@@H](CCC(=O)O)C(=O)N[C@@H](CO)C(=O)N1CCC[C@H]1C(=O)N1CCC[C@H]1C(=O)N[C@@H](CC(C)C)C(=O)N[C@@H](CC(C)C)C(=O)N1CCC[C@H]1C(=O)N1CCC[C@H]1C(=O)N[C@@H](CCCNC(=N)N)C(=O)N[C@@H](CCC(=O)O)C(=O)N1CCC[C@H]1C(=O)N[C@H](C(=O)N[C@@H](CCCNC(=N)N)C(=O)N[C@H](C(=O)N1CCC[C@H]1C(=O)N[C@@H](CC(=O)O)C(=O)N[C@H](C(=O)O)C(C)C)[C@@H](C)O)C(C)C [Peptide P5] (H-ISDPPESPPLLPPREPVRTPDV-OH) | > 200 µM | > 200 µM | > 200 µM | > 200 µM | > 200 µM | 62 µM | > 200 µM | > 200 µM | > 200 µM | > 200 µM | 35 µM | > 200 µM |
